Measured values from publication PMC7031696 (Cell chemical biology, 2019).
Like-named read-outs stand apart in the source and are kept apart here.

Tests used:
[1] = tested on: 3D7-MR4 trophozoite parasite-infected RBCs; experiment: Metabolomic profiling (hydrophilic metabolite changes, UHPLC-MS); type: cell-based, Plasmodium falciparum
[2] = tested on: asynchronous 3D7-A10 parasite cultures; experiment: Standard 72-h exposure asexual blood stage susceptibility assay (IC50^72h); type: cell-based, Plasmodium falciparum; settings: Plasmodium falciparum, 3D7, 72 h, read-out: Overall (72hr assay) Mean IC50 (IC50^72h)
[3] = tested on: Plasmodium falciparum 3D7-A10 parasites; experiment: Stage specificity assay (8-h exposure of synchronized stages, IC50^8h); type: cell-based; settings: for IC50: Plasmodium falciparum
[4] = tested on: 3D7-MR4 trophozoite parasite-infected RBCs; settings: 10 × IC50^72h; ref Allman et al., 2016; cited from earlier work

C[C@H]1Cc2c([nH]c3cc(Cl)c(F)cc23)[C@@]2(N1)C(=O)Nc1ccc(Cl)cc12 [KAE609, reference compound]
Log2(fold changes) 3-phosphoglycerate ([1]; metabolite 3-phosphoglycerate, log2 fold change): 0.0100 | Log2(fold changes) 4-Pyridoxic acid ([1]; metabolite 4-Pyridoxic acid, log2 fold change): -0.6000 | Log2(fold changes) 4-aminobutyrate ([1]; metabolite 4-aminobutyrate, log2 fold change): -0.5400 | Log2(fold changes) 4-phosphopantetheine ([1]; metabolite 4-phosphopantetheine, log2 fold change): 0.0000 | Log2(fold changes) 4-phosphopantothenate ([1]; metabolite 4-phosphopantothenate, log2 fold change): -0.1500 | Log2(fold changes) 5-aminopentanoic acid ([1]; metabolite 5-aminopentanoic acid, log2 fold change): 0.0000 | Log2(fold changes) 5-methyl-THF ([1]; metabolite 5-methyl-THF, log2 fold change): 0.0000 | Log2(fold changes) 5-phosphoribosyl-1-pyrophosphate ([1]; metabolite 5-phosphoribosyl-1-pyrophosphate, log2 fold change): -2.9800 | Log2(fold changes) 6-phospho-D-gluconate ([1]; metabolite 6-phospho-D-gluconate, log2 fold change): -0.2800 | Log2(fold change) HVDD ([1]; metabolite HVDD): 0.0000 | Log2(fold change) Hydroxyisocaproic acid ([1]; metabolite Hydroxyisocaproic acid): 0.0000 | Log2(fold change) IDP ([1]; metabolite IDP): 0.0000 | Log2(fold change) IMP ([1]; metabolite IMP): 0.3800 | Log2(fold change) Inositol ([1]; metabolite Inositol): 0.0000 | Log2(fold change) Isopentyl-PP ([1]; metabolite Isopentyl-PP): 0.0000 | Log2(fold change) L-arginino-succinate ([1]; metabolite L-arginino-succinate): 0.0000 | Log2(fold change) LD ([1]; metabolite LD): -1.3200 | Log2(fold change) Myristoyl/tetradecanoyl-CoA ([1]; metabolite Myristoyl/tetradecanoyl-CoA): 0.0000 | Log2(fold change) N-Acetyl-L-alanine ([1]; metabolite N-Acetyl-L-alanine): -1.4200 | Log2(fold change) N-acetyl-L-ornithine ([1]; metabolite N-acetyl-L-ornithine): -1.2700 | Log2(fold change) N-acetyl-glucosamine-1/6-phosphate ([1]; metabolite N-acetyl-glucosamine-1/6-phosphate): -0.2300 | Log2(fold change) N-acetyl-glutamate ([1]; metabolite N-acetyl-glutamate): -0.2700 | Log2(fold change) N-acetyl-glutamine ([1]; metabolite N-acetyl-glutamine): -0.4300 | Log2(fold change) N-carbamoyl-L-aspartate ([1]; metabolite N-carbamoyl-L-aspartate): -4.5700 | Log2(fold change) NAD+ ([1]; metabolite NAD+): -0.4000 | Log2(fold change) NADH ([1]; metabolite NADH): 0.0300 | Log2(fold change) NADP+ ([1]; metabolite NADP+): -0.1200 | Log2(fold change) NADPH ([1]; metabolite NADPH): 0.3500 | Log2(fold change) O-acetyl-L-serine ([1]; metabolite O-acetyl-L-serine): 0.0000 | Log2(fold change) Octoluse 8/1P ([1]; metabolite Octoluse 8/1P): -0.7200 | Log2(fold change) Octoluse Bisphosphate ([1]; metabolite Octoluse Bisphosphate): -1.2000 | Log2(fold change) PD ([1]; metabolite PD): -1.2400 | Log2(fold change) PE ([1]; metabolite PE): -3.4900 | Log2(fold change) PEE ([1]; metabolite PEE): -5.3200 | Log2(fold change) PEEK ([1]; metabolite PEEK): -1.5400 | Log2(fold change) PVNF ([1]; metabolite PVNF): -2.0700 | Log2(fold change) Pyroglutamic acid ([1]; metabolite Pyroglutamic acid): -0.0600 | Log2(fold change) Pyrophosphate ([1]; metabolite Pyrophosphate): -3.3800 | Log2(fold change) Ribose-5-phosphate ([1]; metabolite Ribose-5-phosphate): 0.0000 | Log2(fold change) S-adenosyl-L-homocysteine ([1]; metabolite S-adenosyl-L-homocysteine): -1.6400 | Log2(fold change) S-adenosyl-L-methioninamine ([1]; metabolite S-adenosyl-L-methioninamine): 0.0000 | Log2(fold change) S-adenosyl-L-methionine ([1]; metabolite S-adenosyl-L-methionine): 0.0000 | Log2(fold change) S-methyl-5'-thioadenosine ([1]; metabolite S-methyl-5'-thioadenosine): -0.5300 | Log2(fold change) SD ([1]; metabolite SD): -3.7000 | Log2(fold change) SDL ([1]; metabolite SDL): 0.0000 | Log2(fold change) SID ([1]; metabolite SID): 0.0000 | Log2(fold change) Sedoheptulose bisphosphate ([1]; metabolite Sedoheptulose bisphosphate): -1.3400 | Log2(fold change) Thiamine pyrophosphate ([1]; metabolite Thiamine pyrophosphate): 0.0000 | Log2(fold changes) UDP-D-glucose ([1]; metabolite UDP-D-glucose, log2 fold change): -0.2000 | Log2(fold changes) UDP-D-glucuronate ([1]; metabolite UDP-D-glucuronate, log2 fold change): -0.3600 | Log2(fold changes) UDP-N-acetyl-glucosamine ([1]; metabolite UDP-N-acetyl-glucosamine, log2 fold change): 0.0300 | Log2(fold changes) UDP ([1]; metabolite UDP, log2 fold change): -0.9600 | Log2(fold changes) UMP ([1]; metabolite UMP, log2 fold change): -0.3800 | Log2(fold changes) UTP ([1]; metabolite UTP, log2 fold change): -2.0500 | Log2(fold change) hydroxyphenylpyruvate ([1]; metabolite hydroxyphenylpyruvate): 0.0000 | Log2(fold change) hydroxyproline/Aminolevulinate ([1]; metabolite hydroxyproline/Aminolevulinate): 0.0000 | Log2(fold change) hypoxanthine ([1]; metabolite hypoxanthine): 0.2700 | Log2(fold change) indole ([1]; metabolite indole): 0.1700 | Log2(fold change) inosine ([1]; metabolite inosine): 0.1600 | Log2(fold change) isoleucine ([1]; metabolite isoleucine): 0.0000 | Log2(fold change) lactate ([1]; metabolite lactate): -1.3100 | Log2(fold change) leucine ([1]; metabolite leucine): 0.0000 | Log2(fold change) lysine ([1]; metabolite lysine): 0.0000 | Log2(fold change) malate ([1]; metabolite malate): -0.0600 | Log2(fold change) maleic acid ([1]; metabolite maleic acid): 0.0000 | Log2(fold change) methionine ([1]; metabolite methionine): 0.0000 | Log2(fold change) myo-inositol ([1]; metabolite myo-inositol): -3.2700 | Log2(fold change) nicotinamide mononucleotide ([1]; metabolite nicotinamide mononucleotide): 0.0000 | Log2(fold change) nicotinate ([1]; metabolite nicotinate): 0.7800 | Log2(fold change) ornithine ([1]; metabolite ornithine): -0.1500 | Log2(fold change) orotate ([1]; metabolite orotate): 0.9100 | Log2(fold change) orotidine-5'-phosphate ([1]; metabolite orotidine-5'-phosphate): 0.0000 | Log2(fold change) oxaloacetate ([1]; metabolite oxaloacetate): 0.0000 | Log2(fold change) p-aminobenzoate ([1]; metabolite p-aminobenzoate): 0.0000 | Log2(fold change) p-hydroxybenzoate ([1]; metabolite p-hydroxybenzoate): 0.5800 | Log2(fold change) pantothenate ([1]; metabolite pantothenate): 0.0000 | Log2(fold change) phenylalanine ([1]; metabolite phenylalanine): 0.0000 | Log2(fold change) phenylpyruvate ([1]; metabolite phenylpyruvate): -0.7100 | Log2(fold change) phosphoenolpyruvate ([1]; metabolite phosphoenolpyruvate): 0.4500 | Log2(fold change) prephenate ([1]; metabolite prephenate): 0.0000 | Log2(fold change) proline ([1]; metabolite proline): 0.0000 | Log2(fold change) pyridoxine ([1]; metabolite pyridoxine): 0.0000 | Log2(fold change) pyruvate ([1]; metabolite pyruvate): -1.3400 | Log2(fold change) riboflavin ([1]; metabolite riboflavin): 0.0000 | Log2(fold change) ribose ([1]; metabolite ribose): 0.0000 | Log2(fold change) ribose-phosphate ([1]; metabolite ribose-phosphate): -0.5600 | Log2(fold change) ribulose-5-phosphate ([1]; metabolite ribulose-5-phosphate): 0.0000 | Log2(fold change) serine ([1]; metabolite serine): 0.0000 | Log2(fold change) sn-glycerol-3-phosphate ([1]; metabolite sn-glycerol-3-phosphate): 0.6100 | Log2(fold change) succinate/Methylmalonic acid ([1]; metabolite succinate/Methylmalonic acid): 0.1400 | Log2(fold change) succinyl-CoA/methylmalonyl-CoA ([1]; metabolite succinyl-CoA/methylmalonyl-CoA): 0.0000 | Log2(fold change) taurine ([1]; metabolite taurine): 0.0000 | Log2(fold change) thiamine ([1]; metabolite thiamine): 0.0000 | Log2(fold change) threonine/homoserine ([1]; metabolite threonine/homoserine): 0.0000 | Log2(fold change) thymidine ([1]; metabolite thymidine): 0.7900 | Log2(fold changes) thymine ([1]; metabolite thymine, log2 fold change): -0.5500 | Log2(fold changes) trehalose-6-Phosphate ([1]; metabolite trehalose-6-Phosphate, log2 fold change): 0.0000 | Log2(fold changes) tryptophan ([1]; metabolite tryptophan, log2 fold change): 0.0000 | Log2(fold changes) tyrosine ([1]; metabolite tyrosine, log2 fold change): 0.0000 | Log2(fold changes) uridine ([1]; metabolite uridine, log2 fold change): -0.4400 | IC50 [2]: 0.73 nM | Ratio lowest IC50 8hr/IC50 72hr ([3]; 3D7-A10): 1.5 | overall activity profile (stages on which active) ([3]; 8-h exposures): inactive against rings yet active against early trophozoites and later stages | IC50 ([3]; 3D7, read-out: Early rings IC50 (IC50^8h)): > 1250 nM | IC50 ([3]; 3D7, read-out: Early trophozoites Mean IC50 (IC50^8h)): 3.2 nM | IC50 ([3]; 3D7, read-out: Late rings IC50 (IC50^8h)): > 1250 nM | IC50 ([3]; 3D7, read-out: Late trophozoites Mean IC50 (IC50^8h)): 1.1 nM | IC50 ([3]; 3D7, read-out: Schizonts Mean IC50 (IC50^8h)): 1.2 nM | levels of cAMP [4]: decreased | levels of the deoxyribonucleotides dAMP and dTMP [4]: increased | nucleoside di- and tri-phosphate levels (GDP, UDP, GTP, dATP, dGTP/ATP, dUTP) [4]: decreased | peptide levels (hemoglobin catabolism signature) [4]: decreased peptide levels
